Test results as given in the supplement of paper PMC10307832.

How the values were obtained:
Experiment in all cases: relative viability (nuclei count vs DMSO), 5 days (fraction); higher = more cells survive
[1] = compound: COc1cc2nccc(Oc3ccc(NC(=O)C4(C(=O)Nc5ccc(F)cc5)CC4)cc3)c2cc1OC [Cabozantinib] + C[C@@H](Oc1cc(-c2cnn(C3CCNCC3)c2)cnc1N)c1c(Cl)ccc(F)c1Cl [Crizotinib] (partner 1 µM)
In short: (§1)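 Relative viability is defined as nuclei in treated wells over nuclei in vehicle wells. Duplicate plates were run and medians reported. Lung cancer cell lines in 1536-well plates were dosed by pin tool one day after seeding, with one drug or with a fixed anchor-drug dose plus five library-drug doses (not always all listed) in √10 steps, and nuclei were counted after 5 days.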

[2] = compound: COc1cc2nccc(Oc3ccc(NC(=O)C4(C(=O)Nc5ccc(F)cc5)CC4)cc3)c2cc1OC [Cabozantinib] + CS(=O)(=O)CCNCc1ccc(-c2ccc3ncnc(Nc4ccc(OCc5cccc(F)c5)c(Cl)c4)c3c2)o1 [Lapatinib] (partner 2 µM)
In short: as §1

[3] = compound: O[C@@H](COc1cccc2ncccc12)CN1CCN([C@@H]2c3ccccc3[C@@H]3[C@H](c4ccccc42)C3(F)F)CC1 [Zosuquidar] + Cc1nc(Nc2ncc(C(=O)Nc3c(C)cccc3Cl)s2)cc(N2CCN(CCO)CC2)n1 [Dasatinib] (partner 0.075 µM)
In short: as §1

Cell Line	relative viability ([1]; first compound 0.06325 µM)	relative viability ([1]; first compound 0.2 µM)	relative viability ([1]; first compound 0.6325 µM)	relative viability ([1]; first compound 2 µM)	relative viability ([2]; first compound 0.06325 µM)	relative viability ([2]; first compound 0.2 µM)	relative viability ([2]; first compound 0.6325 µM)	relative viability ([2]; first compound 2 µM)	relative viability ([3]; first compound 0.01 µM)	relative viability ([3]; first compound 0.03162 µM)	relative viability ([3]; first compound 0.1 µM)	relative viability ([3]; first compound 0.3162 µM)	relative viability ([3]; first compound 1 µM)	relative viability ([1]; first compound 0.02 µM)	relative viability ([2]; first compound 0.02 µM)
NCI-H1944	1.26	1.1	1.07	1.21	0.858	0.793	0.756	0.884	0.206	0.159	0.187	0.244	0.229		
NCI-H322M	1.04		0.945	0.861	0.632		0.584	0.58	0.242	0.229	0.242	0.269	0.227	1.02	0.454
NCI-H2085	0.921	0.992	0.898	0.799	0.881	0.676	0.728	0.643	0.247	0.234	0.19	0.243	0.228	0.949	0.793
RERF-LC-KJ	0.895	0.917	0.802	0.855	0.894	0.784	0.776	0.815	0.729	0.859	0.896	0.74	0.782	0.868	0.904
NCI-H1355	1.16	1.09	1.05	1.15	1.12	1.02	0.979	1.03	0.681	0.726	0.623	0.85	0.711	1.11	0.825
NCI-H1650	1.23	0.911	1.04	0.911	0.916	0.904	0.708	0.568	0.298	0.29	0.284	0.338	0.314	1.02	0.788
PC-14	0.911		0.894	0.788	0.3		0.273	0.27	0.271	0.223	0.341	0.303	0.284	0.983	0.27
NCI-H1755	0.964	0.942	0.797	0.781	1.12	1.05	0.964	0.932	0.401	0.383	0.375	0.451	0.415	0.972	1.02
NCI-H1651	0.866	0.885	0.846	0.842	0.794	0.71	0.786	0.754	0.357	0.324	0.463	0.356	0.381	0.821	0.812
NCI-H661	0.991	1.13	0.918	1.03	0.467	0.502	0.449	0.343	0.812	0.756	0.922	1.03	0.865		0.46
NCI-H358	0.708	0.576	0.401	0.382	0.418	0.454	0.358	0.369	0.144	0.172	0.142	0.183	0.153	0.717	0.449
HCC-15	0.956	0.828	0.873	0.811	0.879	0.783	0.843	0.965	0.559	0.581	0.592	0.663	0.612	0.877	0.85
PC-3 [JPC-3]	1.1		0.919	0.967	0.473		0.407	0.391	1	1.02	0.941	0.927	0.964	1.07	0.398
HOP-62	1.06	1.14	0.89	0.902	1.3	1.19	1.2	1.14	0.702	0.528	0.594	0.679	0.633	0.821	1.05
NCI-H460	0.895	0.902	0.926	0.929	1.13	0.958	0.97	0.981	0.428	0.364	0.453	0.855	0.485	1.01	1.19
NCI-H727	0.866	0.786	1.03	0.896	1.27	0.702	0.806	0.783	0.373	0.387	0.424	0.429	0.355	0.934	0.61
NCI-H838	0.925	0.834	0.787	0.799	0.997	0.895	0.881	0.877	0.321	0.26		0.336	0.35	1.03	1.01
NCI-H1734	0.761	0.687	0.73	0.635	1.09	0.984	1.08	1.01	0.41	0.408	0.455	0.571	0.531	0.809	0.98
EKVX	1.07	0.856	0.907	1.03	0.207	0.203	0.21	0.191	0.694	0.38	0.558	0.657	0.488	1.25	0.172

Cell Line	relative viability ([1]; first compound 0.06325 µM)	relative viability ([1]; first compound 0.2 µM)	relative viability ([1]; first compound 0.6325 µM)	relative viability ([1]; first compound 2 µM)	relative viability ([2]; first compound 0.06325 µM)	relative viability ([2]; first compound 0.2 µM)	relative viability ([2]; first compound 0.6325 µM)	relative viability ([2]; first compound 2 µM)	relative viability ([3]; first compound 0.01 µM)	relative viability ([3]; first compound 0.03162 µM)	relative viability ([3]; first compound 0.1 µM)	relative viability ([3]; first compound 0.3162 µM)	relative viability ([3]; first compound 1 µM)	relative viability ([1]; first compound 0.02 µM)	relative viability ([2]; first compound 0.02 µM)
NCI-H647	1.58	1.05	1.07	0.877	1.45	1.15	1.13	0.734	0.168	0.121	0.137	0.229	0.163	1.23	1.29
LOU-NH91	0.751	0.531	0.728	0.725	0.776	0.781	0.711	0.712	0.515	0.377		0.601	0.552	0.736	0.687
COR-L23	0.791	0.716	0.621	0.544	1.14	0.947	1.12	0.878	0.459	0.474	0.474	0.581	0.485	0.73	1.04
NCI-H1437	1	0.955	0.976	0.792	0.91	0.798	0.823	0.779	0.404	0.398	0.457	0.715	0.346	1.02	0.892
EPLC-272H	0.946	0.783	0.835	0.771	1.22	0.877	0.97	0.701	0.381	0.316	0.331	0.325	0.389	0.893	0.899
NCI-H1666	1	1.05	1.1	1.08	0.621	0.677	0.712	0.595	0.785	0.818	0.869	0.9	0.761	0.965	0.693
NCI-H23	0.634	0.503	0.473	0.413	1.37	1.07	1.04	0.885	0.713	0.811	0.739	0.983	0.806		
SW 1573	0.873	0.948	0.822	0.671	1.03	1.23	1.23	1.04	0.603	0.437	0.667	0.456	0.595	0.927	1.06
LU99A	0.607	0.592	0.567	0.527	1.07	0.985	0.996	0.931	0.458	0.577	0.505	0.552	0.569	0.585	0.896
SK-LU-1	0.941	0.772	0.872	0.857	0.539	0.929	0.774	0.634	0.191	0.145	0.194	0.211	0.189		
NCI-H2126	1.04	1.01	1.04	1.02	0.843	0.723	0.75	0.77	0.581	0.599		0.639	0.61	1.03	0.612
LXF-289	0.857	0.392	0.805	0.818	0.922	0.896	0.918	0.92	0.217	0.125	0.237	0.301	0.182	0.858	0.91
BEN	1	0.868	0.895	0.767	0.814	0.846	0.67	0.63	0.31	0.281	0.299	0.314	0.258	1.12	0.702
LCLC-97TM1	0.354	0.49	0.365	0.306	1.21	0.927	1.13	1.09	0.776	0.756	0.73	0.761	0.898		
NCI-H1993	1.04	0.682	0.856	0.884	0.807	0.792	0.725	0.814	0.66	0.507	0.501	0.564	0.654	0.798	0.76
NCI-H596	1.06	0.87	1.01	0.888	1.21	0.956	1.05	1.02	0.584		0.715	0.623	0.618	1.06	1.17
HCC-78	0.356	0.288	0.351	0.318	0.922	0.348	0.305	0.286	0.553	0.386		0.331	0.254	0.326	0.458
NCI-H1975	1.05	0.948	1.09	0.83	0.986	0.852	0.845	0.797	0.335	0.313	0.433	0.374	0.352	1.09	0.969
